# Measured values taken from ChEMBL document CHEMBL1201862, “PubChem BioAssay data set” (2004).
# Active and inactive are the calls of the source.
# What was measured:
# [1] = target: T1, Histone-lysine N-methyltransferase NSD2 (Homo sapiens, UniProt O96028); type: biochemical
# T1 sequence (O96028 whole entry): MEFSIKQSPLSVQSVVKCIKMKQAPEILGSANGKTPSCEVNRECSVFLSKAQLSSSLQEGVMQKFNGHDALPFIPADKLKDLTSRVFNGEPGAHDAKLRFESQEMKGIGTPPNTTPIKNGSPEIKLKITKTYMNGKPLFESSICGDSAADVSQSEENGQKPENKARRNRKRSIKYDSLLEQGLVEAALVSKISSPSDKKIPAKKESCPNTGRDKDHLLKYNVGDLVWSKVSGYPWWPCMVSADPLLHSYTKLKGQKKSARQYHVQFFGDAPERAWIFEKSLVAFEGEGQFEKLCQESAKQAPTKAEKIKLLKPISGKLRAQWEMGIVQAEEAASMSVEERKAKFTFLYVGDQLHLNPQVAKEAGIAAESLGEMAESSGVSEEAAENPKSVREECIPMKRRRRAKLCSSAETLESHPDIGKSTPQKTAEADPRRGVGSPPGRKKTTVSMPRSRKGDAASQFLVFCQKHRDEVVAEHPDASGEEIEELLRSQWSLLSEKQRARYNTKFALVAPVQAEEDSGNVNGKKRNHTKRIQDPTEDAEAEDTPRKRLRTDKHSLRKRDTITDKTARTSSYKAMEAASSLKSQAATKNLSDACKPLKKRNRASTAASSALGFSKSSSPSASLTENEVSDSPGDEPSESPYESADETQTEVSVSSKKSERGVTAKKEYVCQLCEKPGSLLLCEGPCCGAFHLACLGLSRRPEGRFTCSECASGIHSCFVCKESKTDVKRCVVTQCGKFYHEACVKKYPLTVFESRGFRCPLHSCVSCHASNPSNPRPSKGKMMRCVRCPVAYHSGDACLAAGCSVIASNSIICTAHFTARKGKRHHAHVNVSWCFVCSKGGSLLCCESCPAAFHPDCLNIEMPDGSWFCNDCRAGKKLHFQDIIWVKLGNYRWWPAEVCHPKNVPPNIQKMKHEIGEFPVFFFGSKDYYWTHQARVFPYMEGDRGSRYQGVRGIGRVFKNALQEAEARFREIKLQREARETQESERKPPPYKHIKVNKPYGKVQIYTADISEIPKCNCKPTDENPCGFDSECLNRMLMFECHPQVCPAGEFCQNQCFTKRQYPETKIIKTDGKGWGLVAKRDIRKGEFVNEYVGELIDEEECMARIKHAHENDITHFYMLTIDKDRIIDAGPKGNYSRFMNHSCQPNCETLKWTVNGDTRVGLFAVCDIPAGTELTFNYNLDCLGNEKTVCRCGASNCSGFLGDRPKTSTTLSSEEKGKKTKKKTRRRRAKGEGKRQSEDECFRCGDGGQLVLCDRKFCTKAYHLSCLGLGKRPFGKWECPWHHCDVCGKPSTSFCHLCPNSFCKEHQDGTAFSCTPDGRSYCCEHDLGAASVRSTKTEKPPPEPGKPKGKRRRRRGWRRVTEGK
# [2] = target: T2, Short transient receptor potential channel 4 (Mus musculus, UniProt Q9QUQ5); test: mouse TRPC4 channel activators, dose response, cell-based, HEK293 TRPC4/mu-opioid, Fluo-4 calcium (AID 434937); type: functional
# T2 sequence (Q9QUQ5 whole entry): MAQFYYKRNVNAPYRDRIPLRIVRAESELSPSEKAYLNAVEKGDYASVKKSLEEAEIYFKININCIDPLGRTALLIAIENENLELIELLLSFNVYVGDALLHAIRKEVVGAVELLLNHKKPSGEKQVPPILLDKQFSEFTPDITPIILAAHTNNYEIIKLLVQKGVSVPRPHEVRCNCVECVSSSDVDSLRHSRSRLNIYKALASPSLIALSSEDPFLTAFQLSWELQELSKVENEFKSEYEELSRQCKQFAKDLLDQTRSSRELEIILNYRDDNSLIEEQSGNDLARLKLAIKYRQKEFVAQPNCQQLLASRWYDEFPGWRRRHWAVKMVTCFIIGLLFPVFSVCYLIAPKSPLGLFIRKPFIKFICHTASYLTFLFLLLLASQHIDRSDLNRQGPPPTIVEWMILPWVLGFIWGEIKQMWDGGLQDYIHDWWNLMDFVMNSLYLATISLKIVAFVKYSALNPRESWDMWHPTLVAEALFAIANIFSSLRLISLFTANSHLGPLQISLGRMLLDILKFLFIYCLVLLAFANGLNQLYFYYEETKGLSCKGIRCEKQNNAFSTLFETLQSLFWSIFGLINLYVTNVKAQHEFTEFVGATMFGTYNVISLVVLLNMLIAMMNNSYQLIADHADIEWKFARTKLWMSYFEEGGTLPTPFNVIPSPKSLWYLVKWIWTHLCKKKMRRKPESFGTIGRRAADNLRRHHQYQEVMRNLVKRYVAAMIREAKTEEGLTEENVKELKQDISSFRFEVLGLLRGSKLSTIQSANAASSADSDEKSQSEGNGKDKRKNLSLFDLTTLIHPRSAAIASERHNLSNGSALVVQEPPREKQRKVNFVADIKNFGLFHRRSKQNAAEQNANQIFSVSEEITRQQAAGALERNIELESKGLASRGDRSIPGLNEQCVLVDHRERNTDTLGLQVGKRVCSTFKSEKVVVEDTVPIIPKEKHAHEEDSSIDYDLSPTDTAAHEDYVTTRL
# [3] = target: Photoreceptor-specific nuclear receptor (Homo sapiens, UniProt Q9Y5X4); type: functional, cell-based;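 further: CHO-S cells with Gal4-NCOR and VP16-NR2E3 two-hybrid luciferase reporter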
# [4] = inhibitors of intracellular T. cruzi replication, confirmation, NIH3T3 host cells, beta-gal luminescence (AID 2044); type: functional, cell-based;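 further: intracellular parasites grown in NIH/3T3 mouse fibroblasts as host cells; luminescent beta-galactosidase reporter signal from transgenic T. cruzi replicating inside host cells; inhibitors lower the luminescence signal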
# [5] = cytotoxicity toward NIH3T3 fibroblasts, dose response, counter-screen, cell-based, ATP luminescence, mouse fibroblasts (AID 2010); type: functional;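 further: cells exposed to compound for about 90 hours before reading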
# [6] = C. albicans growth with fluconazole, confirmation, fluorescence, retest (AID 2467); type: functional, cell-based
# [7] = NIH-3T3 fibroblast cytotoxicity, dose response, cytotoxicity control, cell-based, fluorescence, Alamar Blue, secondary assay (AID 2327); type: functional;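 further: NIH-3T3 mouse fibroblasts cultured with fluconazole at 8 µg/mL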
# HEK293 = test: inhibitors of LMP1-driven NF-kB reporter, dose response, cell-based, HEK293, luciferase, cherry-pick (AID 588343); type: functional; conditions: Homo sapiens
# [8] = cytotoxicity in HEK-293T cells, dose response, cytotoxicity control for TCR NF-kB inhibitor project, luminescence, T-cell screen hits (AID 489026); type: functional, cell-based;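 further: cells exposed to compound about 14 hours before the viability readout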
# [9] = microbe, parasite or virus in culture; type: functional; conditions: Mycobacterium tuberculosis
# [10] = target: T3, High affinity choline transporter 1 (Homo sapiens, UniProt Q9GZV3); test: CHT inhibitors, dose response, cell-based, 5-point CRC, membrane potential dye (AID 504840); type: functional
# T3 sequence (Q9GZV3 whole entry): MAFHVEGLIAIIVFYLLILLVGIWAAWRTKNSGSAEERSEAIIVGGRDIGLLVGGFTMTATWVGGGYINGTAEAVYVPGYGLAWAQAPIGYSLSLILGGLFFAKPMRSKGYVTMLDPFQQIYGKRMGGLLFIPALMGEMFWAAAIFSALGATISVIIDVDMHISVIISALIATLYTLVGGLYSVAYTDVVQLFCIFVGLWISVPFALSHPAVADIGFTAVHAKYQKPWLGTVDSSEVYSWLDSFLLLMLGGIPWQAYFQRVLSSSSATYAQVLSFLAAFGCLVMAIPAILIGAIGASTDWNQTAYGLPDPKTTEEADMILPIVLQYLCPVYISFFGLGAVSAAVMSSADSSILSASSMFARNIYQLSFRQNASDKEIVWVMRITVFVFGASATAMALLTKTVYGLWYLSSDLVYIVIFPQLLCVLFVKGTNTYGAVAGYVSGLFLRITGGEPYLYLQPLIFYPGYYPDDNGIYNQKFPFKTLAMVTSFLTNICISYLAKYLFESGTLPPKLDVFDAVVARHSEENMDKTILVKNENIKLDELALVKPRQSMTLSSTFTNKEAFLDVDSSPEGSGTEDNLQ
# [11] = target: Heat shock protein HSP 90-alpha (Homo sapiens, UniProt P07900); type: functional, organism-based
# Vero = test: cells; type: functional; conditions: Chlorocebus sabaeus
# [12] = Luminescence Cell-Based Dose Retest to Confirm Inhibitors of Cancer Stem Cells. [Related pubchem assays (depositor defined):AID2717, AID2721]; type: functional; conditions: Homo sapiens
# Fatty acid synthase [13] = target: T4, Fatty acid synthase (Homo sapiens, UniProt P49327); test: FAS thioesterase domain inhibitors, dose response, biochemical, kinetic fluorescence intensity (AID 624326); type: functional;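 further: rate of fluorescence rise from hydrolysis of a fluorogenic O-methyl fluorescein ester substrate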
# Fatty acid synthase [14] = target: T4, Fatty acid synthase; test: FAS thioesterase domain inhibitors, dose response, biochemical, endpoint fluorescence intensity, uHTS hits (AID 624327); type: functional;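 further: fluorescence from hydrolysis of an O-methyl fluorescein acyl ester substrate by the enzyme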
# Streptococcus = test: Group A Streptococcus viability loss, dose response, counter-screen for streptokinase expression inhibitor project, luminescence, BacTiterGlo (AID 1915); type: functional, organism-based;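 further: potency for reduction of bacterial viability or growth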
# [15] = inhibitors of firefly luciferase expression or activity, dose response, H4 neuroglioma cells, luminescence (AID 1990); type: functional, cell-based
# [16] = tested on: Streptococcus sp. 'group A'; test: growth inhibition of control SK(-) GAS strain, dose response, counter-screen for streptokinase expression inhibitor project, luminescence, kanamycin, BacTiterGlo, confirmation (AID 1900); type: functional, organism-based
# [17] = Luminescence Cell-Based Dose Response HTS to Identify Inhibitors of 5'UTR Stem-Loop Driven Prion Protein mRNA Translation in H4 Neuroglioblastoma Cells. [Related pubchem assays: 1827 (Project Summary), 1813 (Primary HTS)]; type: functional
# [18] = inhibitors of SNCA 5'UTR-driven reporter translation, confirmation, H4 neuroglioma cells, luminescence (AID 1988); type: functional, cell-based
# cells = type: functional
# [19] = target: T5, DNA repair protein RAD52 homolog (Homo sapiens, UniProt P43351); type: functional, biochemical
# T5 sequence (P43351 whole entry): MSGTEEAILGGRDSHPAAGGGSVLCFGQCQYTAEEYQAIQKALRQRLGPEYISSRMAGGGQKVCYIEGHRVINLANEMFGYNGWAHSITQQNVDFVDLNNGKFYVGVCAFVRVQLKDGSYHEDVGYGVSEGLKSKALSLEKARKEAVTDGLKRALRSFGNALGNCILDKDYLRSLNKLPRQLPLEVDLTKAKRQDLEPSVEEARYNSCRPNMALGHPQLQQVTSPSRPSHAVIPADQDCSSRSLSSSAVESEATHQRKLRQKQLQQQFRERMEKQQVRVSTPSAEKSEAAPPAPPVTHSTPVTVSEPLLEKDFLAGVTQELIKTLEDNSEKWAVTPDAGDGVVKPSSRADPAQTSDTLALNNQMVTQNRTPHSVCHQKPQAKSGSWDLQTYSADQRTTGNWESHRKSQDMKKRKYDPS
# [20] = target: Induced myeloid leukemia cell differentiation protein Mcl-1 (Homo sapiens, UniProt Q07820); type: functional
# [21] = HEp-2 cell cytotoxicity, dose response, cytotoxicity control for RSV inhibitor project, HTS (AID 2410); type: functional; conditions: human respiratory syncytial virus
# Photoreceptor-specific nuclear receptor, sequence (Q9Y5X4 whole entry, the tested form may be a part): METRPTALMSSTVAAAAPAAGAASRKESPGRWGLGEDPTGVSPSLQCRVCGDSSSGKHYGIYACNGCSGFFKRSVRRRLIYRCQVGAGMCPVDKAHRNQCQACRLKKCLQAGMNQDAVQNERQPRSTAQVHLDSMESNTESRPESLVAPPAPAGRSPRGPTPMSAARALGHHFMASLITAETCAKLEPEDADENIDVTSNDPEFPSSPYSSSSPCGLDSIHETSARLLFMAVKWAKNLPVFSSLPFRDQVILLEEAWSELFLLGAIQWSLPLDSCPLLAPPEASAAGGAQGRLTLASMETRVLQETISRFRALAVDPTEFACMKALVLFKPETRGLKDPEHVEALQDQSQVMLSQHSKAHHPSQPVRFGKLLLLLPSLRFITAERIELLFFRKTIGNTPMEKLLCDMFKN
# T4 sequence (P49327 whole entry, the tested form may be a part): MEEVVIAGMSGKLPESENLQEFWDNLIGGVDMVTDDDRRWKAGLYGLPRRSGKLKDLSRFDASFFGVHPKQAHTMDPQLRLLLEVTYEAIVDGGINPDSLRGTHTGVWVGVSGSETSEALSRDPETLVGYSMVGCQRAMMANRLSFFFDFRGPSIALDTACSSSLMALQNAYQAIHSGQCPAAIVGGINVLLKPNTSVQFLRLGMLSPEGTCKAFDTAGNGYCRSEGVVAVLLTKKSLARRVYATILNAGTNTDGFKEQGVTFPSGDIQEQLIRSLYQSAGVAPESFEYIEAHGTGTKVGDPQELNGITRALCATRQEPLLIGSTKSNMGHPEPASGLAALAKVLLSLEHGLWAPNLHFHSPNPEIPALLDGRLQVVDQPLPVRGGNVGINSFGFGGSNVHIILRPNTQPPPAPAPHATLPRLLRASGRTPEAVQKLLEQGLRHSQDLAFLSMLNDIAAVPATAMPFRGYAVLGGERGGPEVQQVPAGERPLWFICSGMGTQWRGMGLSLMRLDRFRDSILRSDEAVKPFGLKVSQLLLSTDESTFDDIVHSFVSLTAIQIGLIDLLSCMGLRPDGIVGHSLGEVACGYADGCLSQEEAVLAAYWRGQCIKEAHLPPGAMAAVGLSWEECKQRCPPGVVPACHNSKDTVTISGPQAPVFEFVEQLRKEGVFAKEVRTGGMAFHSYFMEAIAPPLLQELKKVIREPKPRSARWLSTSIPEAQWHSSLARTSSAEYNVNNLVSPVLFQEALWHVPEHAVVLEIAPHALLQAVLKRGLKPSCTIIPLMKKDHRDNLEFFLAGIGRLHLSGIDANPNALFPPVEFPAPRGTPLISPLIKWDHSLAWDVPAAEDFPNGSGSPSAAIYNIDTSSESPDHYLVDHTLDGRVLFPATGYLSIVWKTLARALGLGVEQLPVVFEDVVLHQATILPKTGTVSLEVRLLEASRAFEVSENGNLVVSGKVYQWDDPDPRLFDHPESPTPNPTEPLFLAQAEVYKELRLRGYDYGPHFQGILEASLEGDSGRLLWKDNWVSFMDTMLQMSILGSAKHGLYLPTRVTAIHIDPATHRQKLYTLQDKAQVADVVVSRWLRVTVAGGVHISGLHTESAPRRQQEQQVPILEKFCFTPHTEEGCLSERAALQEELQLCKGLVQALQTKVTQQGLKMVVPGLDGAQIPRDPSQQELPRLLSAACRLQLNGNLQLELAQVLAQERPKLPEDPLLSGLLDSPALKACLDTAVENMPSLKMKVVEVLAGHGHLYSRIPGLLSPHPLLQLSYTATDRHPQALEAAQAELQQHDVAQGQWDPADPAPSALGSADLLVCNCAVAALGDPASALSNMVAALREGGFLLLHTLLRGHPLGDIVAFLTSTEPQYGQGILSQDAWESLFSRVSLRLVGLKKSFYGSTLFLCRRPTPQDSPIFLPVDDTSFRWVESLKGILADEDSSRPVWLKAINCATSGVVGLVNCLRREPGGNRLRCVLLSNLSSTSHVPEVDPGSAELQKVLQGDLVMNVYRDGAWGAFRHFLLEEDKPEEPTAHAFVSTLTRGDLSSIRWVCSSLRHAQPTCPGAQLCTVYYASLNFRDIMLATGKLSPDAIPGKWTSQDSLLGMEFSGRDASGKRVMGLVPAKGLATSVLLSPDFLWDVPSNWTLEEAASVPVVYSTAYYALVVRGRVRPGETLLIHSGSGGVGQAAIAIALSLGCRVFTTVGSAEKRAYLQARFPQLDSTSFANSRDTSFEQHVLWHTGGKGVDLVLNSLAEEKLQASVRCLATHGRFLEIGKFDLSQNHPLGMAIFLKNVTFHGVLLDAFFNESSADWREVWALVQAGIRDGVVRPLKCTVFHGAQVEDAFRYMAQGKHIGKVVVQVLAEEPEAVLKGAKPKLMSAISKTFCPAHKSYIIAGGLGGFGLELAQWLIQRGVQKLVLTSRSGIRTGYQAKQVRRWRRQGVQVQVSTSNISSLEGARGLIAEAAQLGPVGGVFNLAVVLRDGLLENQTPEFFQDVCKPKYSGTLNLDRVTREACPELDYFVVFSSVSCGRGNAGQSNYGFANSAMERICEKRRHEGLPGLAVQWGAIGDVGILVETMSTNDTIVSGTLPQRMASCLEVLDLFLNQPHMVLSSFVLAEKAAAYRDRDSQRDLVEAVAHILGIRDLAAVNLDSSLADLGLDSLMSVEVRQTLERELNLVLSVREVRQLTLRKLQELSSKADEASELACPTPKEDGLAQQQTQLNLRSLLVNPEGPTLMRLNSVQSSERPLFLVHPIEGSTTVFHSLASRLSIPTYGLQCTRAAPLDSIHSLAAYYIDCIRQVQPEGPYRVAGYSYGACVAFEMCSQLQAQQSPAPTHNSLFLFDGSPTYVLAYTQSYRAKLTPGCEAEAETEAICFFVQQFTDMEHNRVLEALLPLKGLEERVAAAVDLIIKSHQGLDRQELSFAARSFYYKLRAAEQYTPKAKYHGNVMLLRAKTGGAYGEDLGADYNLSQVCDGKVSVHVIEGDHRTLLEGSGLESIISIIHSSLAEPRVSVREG
# Induced myeloid leukemia cell differentiation protein Mcl-1, sequence (Q07820 whole entry): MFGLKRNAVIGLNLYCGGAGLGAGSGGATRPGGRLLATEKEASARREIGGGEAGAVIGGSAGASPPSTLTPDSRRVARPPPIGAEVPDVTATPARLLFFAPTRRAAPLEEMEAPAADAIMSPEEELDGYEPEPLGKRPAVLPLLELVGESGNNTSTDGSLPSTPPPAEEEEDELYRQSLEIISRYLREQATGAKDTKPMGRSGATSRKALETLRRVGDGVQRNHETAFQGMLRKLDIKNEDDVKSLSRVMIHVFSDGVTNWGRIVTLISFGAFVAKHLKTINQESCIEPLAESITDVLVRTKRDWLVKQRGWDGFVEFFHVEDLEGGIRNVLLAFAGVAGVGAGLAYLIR
smiles,measurement,setting,value
CCCCN(CC)CCNC(=O)c1ccc2c(Cl)c3c(nc2c1)CCC3,AC50,[1],> 20 µM (inactive)
same,EC50,[2],0.024 µM (active)
CC(C)(C)C(=O)Nc1ccc(Sc2ccc([N+](=O)[O-])cc2)cc1,IC50,[3],3.51 µM (active)
CN=C(S)N=CNOCc1ccc(Cl)cc1Cl,EC50,[4],0.368 µM (active)
same,EC50,[5],7.02 µM (active)
same,EC50,[6],< 0.03 µM (active)
same,IC50,[3],3.21 µM (active)
same,EC50,[7],7.07 µM (inconclusive)
CCC(=O)N1CCCc2cc(S(=O)(=O)N3CCN(c4ccccn4)CC3)ccc21,IC50,[3],2.3 µM (active)
CC1=C(C(=O)OCc2ccc3c(c2)OCO3)C(c2ccc(Cl)cc2)NC(=O)N1 (configuration not stated),AC50,HEK293,0.299 µM (active)
same,IC50,[8],> 80 µM (inactive)
Cc1c(Cl)ccc2sc(N3CCN(C(=O)C4=COCCO4)CC3)nc12,CC50,[9],38.1 µM (active)
same,IC50,[3],4.06 µM (active)
CCC1(C)Cc2c(sc3[nH]c(=S)n(Cc4ccccc4)c(=O)c23)CO1 (configuration not stated),IC50,[3],4.95 µM (active)
O=C1CC(O)(C(F)(F)F)Oc2c1ccc1ccccc21 (configuration not stated),IC50,[10],12.9 µM (active)
same,EC50,[2],9.44 µM (active)
CCN1C(=O)/C(=C\C(=O)c2cccs2)c2cc(Br)ccc21,AC50,[11],3.66 µM (active)
same,CC50,Vero,> 25 µM (active)
COc1ccc(-c2csc3nc(-c4ccccc4F)oc(=O)c23)cc1OC,AC50,[12],5.19 µM (active)
same,IC50,Fatty acid synthase [13],6.25 µM (active)
same,IC50,Fatty acid synthase [14],9.02 µM (active)
COc1ccc(C(=O)NNC(=S)NC(=O)c2ccccc2)cc1,EC50,[6],2.08 µM (active)
same,EC50,Streptococcus,3.03 µM (active)
same,EC50,[15],> 120 µM (not active)
same,EC50,[16],1.18 µM (active)
same,EC50,[7],> 150 µM (inactive)
same,EC50,[17],11.6 µM (active)
same,EC50,[18],15.5 µM (active)
same,EC50,[2],5.96 µM (active)
COc1ccc(/C=C/c2nc3ccccc3c(=O)o2)cc1,IC50,cells,21.5 µM (active)
same,AC50,HEK293,0.507 µM (active)
same,EC50,[15],8.15 µM (inconclusive)
same,EC50,[17],3.01 µM (active)
same,EC50,[18],7.8 µM (inconclusive)
CCOc1cc(/C=C/C(=O)c2ccc(C)cc2)ccc1OCC(=O)N(C)C,CC50,Vero,> 25 µM (active)
COc1cc2cc(-c3ccc(OC)c(OC)c3C)nc(N)c2cc1OC,CC50,Vero,1.67 µM (active)
same,EC50,[15],0.597 µM (active)
same,EC50,[17],0.48 µM (active)
same,AC50,[19],12.4 µM (active)
same,EC50,[18],0.344 µM (active)
NC(=S)n1nc(-c2ccc([N+](=O)[O-])cc2)c(/N=N/c2ccc(Cl)cc2)c1O,IC50,Fatty acid synthase [13],9.27 µM (active)
same,IC50,Fatty acid synthase [14],17.5 µM (active)
same,IC50,[20],> 54 µM (active)
COc1ccc(NC(=O)c2cc3ccccc3oc2=O)cc1,AC50,HEK293,0.673 µM (active)
O=C(Nc1ccc(CN2CCOCC2)cc1)c1ccc(-c2cc(Cl)ccc2Cl)o1,CC50,[9],29.3 µM (active)
same,CC50,[21],4.45 µM (active)
same,CC50,Vero,21.1 µM (active)
